Assay results as given in PubChem BioAssay AID2387 (Broad Institute, 2010).
pEC50: −log10 of the molar value. Activity calls are given as the source filed them.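 How the source made its calls: active means fitted EC50 no more than tenfold above the highest tested concentration; inconclusive means flat fit with 30 to 70% signal loss, or poor fit; inactive means the rest.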

These compounds were tested on Candida albicans CaCi-2 growth (no fluconazole), Alamar Blue (assay: intrinsic antifungal toxicity in Candida, azole-free – CaCi-2 strain, Alamar Blue fluorescence, counter-screen for fluconazole resistance reversal project, dose response (AID 2387)). Conditions: C. albicans CaCi-2 (fluconazole-resistant clinical isolate) growth without fluconazole, 48 h.
In the case of `O=C(NCc1ccc(F)cc1)C(c1ccccc1)N(CC1CCCO1)C(=O)Cn1nnc2ccccc21` (centres undefined), the EC50 was > 15 µM (inactive).
For `CCCCOc1cccc(C2C(C(=O)c3ccc(C)o3)=C(O)C(=O)N2Cc2ccco2)c1` (centres undefined), the EC50 was > 15 µM (inactive).
For `CC1CCC(C(C)C)C(OC(=O)Cn2c(-c3ccc(Br)cc3)[n+](C)c3ccccc32)C1` (centres undefined), the EC50 was > 16 µM (inactive).
In the case of `Cc1c(Cl)c([N+](=O)[O-])nn1Cc1ccc(C(=O)N/N=C\c2cc(Cl)ccc2O)o1`, the EC50 was > 16 µM (inactive).
With `Nc1nonc1-n1nnc(C(=O)N/N=C/c2cc(Cl)ccc2O)c1CN1CCCCCC1` the EC50 was > 15 µM (inactive).
For `COc1ccc(C(c2c(O)ccc3ccccc23)N2CCOCC2)c(OC)c1` (centres undefined), the EC50 was > 16 µM (inactive).
With `COc1ccc(C2c3ccc4ccccc4c3Oc3ncn(CCN4CCOCC4)c(=N)c32)cc1` (centres undefined) the EC50 was > 16 µM (inactive).
With `Oc1c(C(c2ccc(Cl)cc2)N2CCCC2)cc(Cl)c2cccnc12` (centres undefined) the pEC50 was 5.50.
For `O=C(Oc1c(Cl)cc(Cl)c2cccnc12)c1ccco1`, the pEC50 was 5.93.
For `COc1ccc2c(c1)/C(=C/c1cnc[nH]1)C(=O)N2`, the EC50 was > 16 µM (inactive).
With `COC(=O)Cn1nc(-c2ccccc2)c2ccccc21` the EC50 was > 15 µM (inactive).
Compound `COc1ccc(Cl)cc1C(Nc1cccnc1)c1ccc2cccnc2c1O` (centres undefined) has a pEC50 of 4.93.
`CC1=C(CC[C@@H](C)CO)OC2CC3C4CCC5CC(O)CCC5(C)C4CC(=O)C3(C)C12` (some centres undefined) was tested, and the EC50 was > 15 µM (inactive).
`CCC(=O)NC(c1ccc(C)cc1)c1cc([N+](=O)[O-])c2cccnc2c1O` (centres undefined) was tested, and the EC50 was > 15 µM (inactive).
Compound `[O-][n+]1cccc2c(Br)cc(Br)c(O)c21` has a pEC50 of 4.78.
In the case of `COc1ccc(CCNc2ncnc3sc(C)cc23)cc1OC`, the EC50 was > 15 µM (inactive).
Compound `O=c1c2cc(Br)ccc2nc(-c2cccc(C(F)(F)F)c2)n1O` has a pEC50 of 4.84.
For `COc1ccc(-n2c(-c3cccc(C)c3[N+](=O)[O-])n[nH]c2=S)cc1`, the EC50 was > 15 µM (inactive).
`CCNc1nc(NC(C)C)nc(NC(C)(C)C)n1` was tested, and the EC50 was > 16 µM (inactive).
In the case of `CCN1/C(=C/C(C)=C/c2sc3ccccc3[n+]2CC)Sc2ccccc21`, the pEC50 was 5.62.
In the case of `COc1cc2c(cc1NC(=O)c1ccco1)CCCC2`, the EC50 was > 15 µM (inactive).
`CC(CC(=O)Nc1ncc([N+](=O)[O-])s1)c1ccccc1` (centres undefined) was tested, and the EC50 was > 16 µM (inactive).
`O=C(NNC(=S)NC(=O)c1ccc(Br)cc1)c1ccc([N+](=O)[O-])cc1` was tested, and the EC50 was > 16 µM (inactive).
`CCNC(=S)NNC(=O)c1cc(-c2ccccc2C)nc2ccccc12` was tested, and the EC50 was > 16 µM (inactive).
For `O=c1[nH]c(-c2ccccn2)nc(C(F)(F)F)c1Br`, the EC50 was > 15 µM (inactive).
With `NC(=O)c1c(NC(=O)c2ccco2)sc2c1CCC2` the EC50 was > 15 µM (inactive).
In the case of `O=C(c1cc2ccccc2cc1O)N1CCN(c2ccccc2O)CC1`, the EC50 was > 15 µM (inactive).
`CS/C(=N\S(=O)(=O)c1cccs1)Nc1ccc(Br)cc1F` was tested, and the EC50 was > 15 µM (inactive).
With `C=CCOC(=O)c1sc(NC(=O)c2ccco2)nc1C` the EC50 was > 15 µM (inactive).
With `O=[N+]([O-])c1cc(O)c2ncccc2c1` the pEC50 was 4.91.
With `Oc1ccc(N=Nc2ccc3c(c2)OCCO3)c2ncccc12` the pEC50 was 5.48.
`CCN1/C(=C/c2ccc3cc(C)ccc3[n+]2CC)Sc2ccc3sccc3c21` gave a pEC50 of 5.76.
For `O=[N+]([O-])c1cccc(-c2cc(-c3cc(Br)ccc3O)[nH]n2)c1`, the EC50 was > 15 µM (inactive).
With `O=C(Nc1cccc(-c2cn3ccccc3n2)c1)c1cccc(Cl)c1` the EC50 was > 16 µM (inactive).
With `O=C(c1cc(-c2ccccc2)n[nH]1)N1CCc2c([nH]c3ccccc23)C1c1ccccn1` (centres undefined) the EC50 was > 16 µM (inactive).
With `C=CCc1c(C)c(C#N)c2nc3ccccc3n2c1NCCN(C)C` the EC50 was > 15 µM (inactive).
With `O=C(NNC1=C(C(=O)C(F)(F)F)CCC1)c1ccc(Cl)cc1` the EC50 was > 15 µM (inactive).
With `CCOC(=O)c1c(-c2ccccc2Cl)cn2ccccc12` the EC50 was > 16 µM (inactive).
With `O=C(Nc1nnc(-c2ccc(F)cc2)o1)c1cccc([N+](=O)[O-])c1` the EC50 was > 15 µM (inactive).
In the case of `CC(=O)Nc1ccc(Nc2c3ccccc3nc3ccccc23)cc1`, the EC50 was > 15 µM (inactive).
With `Cc1cc(C(=O)Nc2sc3c(c2C#N)CCCC3)no1` the EC50 was > 16 µM (inactive).
`COCCn1c(=O)[nH]c(=O)c2cc(C(=O)c3cc(Cl)ccc3O)cnc21` was tested, and the EC50 was > 16 µM (inactive).
`CCCC(=O)NC(c1ccccc1)c1ccc2cccnc2c1O` (centres undefined) was tested, and the EC50 was > 16 µM (inactive).
With `[O-][N+]1=c2ccc(Nc3ccccc3)cc2=NC12CCCCC2` the EC50 was > 15 µM (inactive).
In the case of `Oc1cccc(C(Nc2nccs2)c2ccc3cccnc3c2O)c1` (centres undefined), the EC50 was > 16 µM (inactive).
For `CCCOc1ccc(C(=O)NNC(=S)NC(C)=O)cc1`, the EC50 was > 16 µM (inactive).
`N#C/C(=C\c1ccc(N2CCOCC2)cc1)c1ccccc1` was tested, and the EC50 was > 16 µM (inactive).
In the case of `COc1ccc(-n2c(=O)c3c4c(sc3n3c(=S)[nH]nc23)CCCC4)cc1`, the EC50 was > 16 µM (inactive).
With `O=C(NNc1nc2ccc(Cl)cc2s1)c1cc(-c2cccs2)nc2ccccc12` the EC50 was > 16 µM (inactive).
`C(=C\c1ccccc1)/CN1CCN(c2ncnc3c2oc2ccccc23)CC1` was tested, and the EC50 was > 16 µM (inactive).
With `CC(C)CCN1C(=O)c2ccc(C(=O)Nc3ccc(Br)cc3C(=O)O)cc2C1=O` the EC50 was > 16 µM (inactive).
`Cc1cc(C)n(-c2nc3ccccc3c(=O)n2OCC#N)n1` was tested, and the pEC50 was 4.95.
For `Nc1c(S(=O)(=O)c2ccccc2)c2nc3ccccc3nc2n1CCN1CCOCC1`, the EC50 was > 16 µM (inactive).
With `COc1ccc(-n2nc(C(=O)NCC(=O)N3CCN(c4ccc(F)cc4)CC3)c3ccccc3c2=O)c(OC)c1` the EC50 was > 15 µM (inactive).
`Cc1cc(C)c(-c2cc(NC(=O)COC(=O)c3ccc(C#N)cc3)n(-c3ccccc3)n2)cc1C` was tested, and the EC50 was > 16 µM (inactive).
For `CC1CCN(Cc2c(C(=O)N/N=C/c3cc(Br)ccc3O)nnn2-c2nonc2N)CC1`, the EC50 was > 16 µM (inactive).
With `CCCC(=O)NC(c1ccc(OC)cc1)c1ccc2cccnc2c1O` (centres undefined) the EC50 was > 16 µM (inactive).
In the case of `Cc1cc(Br)ccc1OCC(=O)NNC(=O)C(=O)Nc1ccccc1`, the EC50 was > 15 µM (inactive).
`O=C(c1ccc(Cn2c(=O)[nH]c3ccccc3c2=O)cc1)N1CCN(c2ccc(F)cc2)CC1` was tested, and the EC50 was > 15 µM (inactive).
In the case of `CC(C)(C)c1ccc(OCCCC(=O)NNC(=O)c2ccccc2O)cc1`, the EC50 was > 16 µM (inactive).
For `N/C(Cc1ccccc1)=N\OC(=O)c1cccc2ccccc12`, the EC50 was > 15 µM (inactive).
In the case of `O=C(Cc1nc2ccccc2s1)c1ccc(O)cc1O`, the EC50 was > 16 µM (inactive).
`Cc1ccc(/C=C/C(=O)c2ccccc(=O)c2O)cc1C` gave a pEC50 of 4.89.
In the case of `Oc1c(C(c2ccccc2Cl)N2CCCC2)ccc2cccnc12` (centres undefined), the pEC50 was 4.84.
In the case of `COc1ccc(C(=O)N2c3ccccc3C=CC2C#N)cc1` (centres undefined), the EC50 was > 15 µM (inactive).
For `O=C(Nc1nc2ccc(SC(F)F)cc2s1)c1ccc(NS(=O)(=O)c2ccc(F)c(F)c2)cc1`, the EC50 was > 15 µM (inactive).
In the case of `CCCCCCCNC(=O)COc1ccc2c(c1)C(=O)CC(C)(C)O2`, the EC50 was > 16 µM (inactive).
With `COc1ccc(OC)c(C2C(C(=O)c3cc4ccccc4o3)=C(O)C(=O)N2c2cc(C)on2)c1` (centres undefined) the EC50 was > 15 µM (inactive).
With `C=CCNC(=S)Nc1sc2c(c1C(=O)OCC)CC(C)(CC)OC2` (centres undefined) the EC50 was > 15 µM (inactive).
For `COc1ccc(N(CC(=O)Nc2ccccc2C(N)=O)S(=O)(=O)c2ccc(C)c([N+](=O)[O-])c2)cc1`, the EC50 was > 16 µM (inactive).
For `Cc1ccc(S(=O)(=O)N(C)c2ccc(OCC(=O)Nc3nnc(C4CC4)s3)cc2)cc1`, the EC50 was > 15 µM (inactive).
With `CCN1/C(=C/c2sc(-c3ccccc3C)c[n+]2C)Sc2ccccc21` the EC50 was > 15 µM (inactive).
For `CCCC(=O)NC(c1ccco1)c1cc([N+](=O)[O-])c2cccnc2c1O` (centres undefined), the EC50 was > 15 µM (inactive).
Work on `CCCC(=O)NC(c1ccc(Cl)cc1)c1ccc2cccnc2c1O` (centres undefined) yielded a pEC50 of 4.79.
`CCOC(=O)c1c(NC(=S)NCC2CCCO2)sc(C)c1C` (centres undefined) was tested, and the EC50 was > 16 µM (inactive).
For `Cc1ccc(OCC(=O)NNC(=S)NC(=O)C2CC2)c(C)c1`, the EC50 was > 15 µM (inactive).
With `O=C(NNC1=C(C(=O)C(F)(F)F)CCC1)c1ccc(Br)cc1` the EC50 was > 15 µM (inactive).
In the case of `COc1ccc(OC)c(/C=C2\SC(=S)N(NS(=O)(=O)c3ccc(C)cc3)C2=O)c1`, the EC50 was > 15 µM (inactive).
In the case of `Nc1nonc1-n1nnc(C(=O)N/N=C/c2cc(Br)ccc2O)c1CNc1ccccc1`, the EC50 was > 16 µM (inactive).
With `O=C(Nc1nnc(-c2ccncc2)o1)c1ccc2ccccc2c1` the EC50 was > 15 µM (inactive).
For `CCC(=O)NC(c1cccs1)c1cc([N+](=O)[O-])c2cccnc2c1O` (centres undefined), the EC50 was > 15 µM (inactive).
`S=c1[nH]nc(C2CCCCC2)n1/N=C/c1ccc(Br)s1` was tested, and the EC50 was > 15 µM (inactive).
In the case of `Cc1ccc(-n2c(O)c(C=Nc3ccccc3-c3n[nH]c(=S)[nH]c3=O)c3ccccc3c2=O)cc1C`, the EC50 was > 16 µM (inactive).
For `CN(C)S(=O)(=O)Oc1cccc(C(=O)Nc2cccc(Cl)c2)c1`, the EC50 was > 15 µM (inactive).
For `CC(C)COCc1ccc(O)c2ncccc12`, the pEC50 was 4.79.
In the case of `C/C(=N\NC(=O)c1cc(C2CC2)nc2ccccc12)c1ccc(O)cc1O`, the EC50 was > 16 µM (inactive).
For `Cn1c(N2CCOCC2)c(/C=N/OC(=O)c2ccc(F)cc2)c2ccccc21`, the EC50 was > 16 µM (inactive).
`Oc1c(CN2CCN(c3ccc(F)cc3)CC2)cc(Cl)c2cccnc12` gave a pEC50 of 5.56.
For `C(C#CCCCCCCCCC[n+]1ccccc1)#CCCCCCCCCC[n+]1ccccc1`, the pEC50 was 5.60.
With `O=c1[nH]c(=S)[nH]nc1Cc1ccc(Cl)c(Cl)c1` the EC50 was > 16 µM (inactive).
For `CCc1nnc(NC(=O)CN2CCN(c3nc(-c4ccccc4)cs3)CC2)s1`, the EC50 was > 15 µM (inactive).
With `C[C@@H]1CC[C@@]2(NC1)O[C@H]1C[C@H]3[C@@H]4CC=C5C[C@@H](O)CC[C@]5(C)[C@H]4CC[C@]3(C)[C@H]1[C@@H]2C` the EC50 was > 16 µM (inactive).
With `COc1cccc(/C=N/NC(=O)C(=O)Nc2ccccc2OC(F)(F)C(F)F)c1O` the EC50 was > 16 µM (inactive).
`O=C(CNc1ccc2ccccc2c1)N/N=C/c1ccc([N+](=O)[O-])o1` was tested, and the EC50 was > 16 µM (inactive).
In the case of `O=Nc1c(-c2cccc([N+](=O)[O-])c2)nc2ncccn12`, the pEC50 was 5.28.
With `COc1ccc(C(NC(=O)C(C)C)c2ccc3cccnc3c2O)cc1` (centres undefined) the EC50 was > 15 µM (inactive).
Work on `O=C(N/N=C/c1cc2c3c(c1O)CCCN3CCC2)c1ccccc1O` yielded a pEC50 of 5.67.
`CCN(CC)c1ccc(/C=N/NC(=O)c2cccc(S(=O)(=O)N3CCOCC3)c2)c(O)c1` was tested, and the EC50 was > 16 µM (inactive).
With `O=c1ccc(N=Nc2ccccc2)ccc1O` the pEC50 was 5.41.
